US11612595B2, “Compositions and methods for treating rheumatoid arthritis” (Generos Biopharma Ltd., priority 2017, dated 2023)

What was measured:
[1] = weight changes in mouse CIA model; type: in vivo, DBA/1J mice; settings: 5 mg/kg i.p. daily
Experimental: FIGS. 7A and 78 show graphs depicting weight changes in five groups of mouse CIA models under different treatment schemes. DBA/1 mice were randomly divided into 9 groups with 10 mice each group. On day 0 and 21, all of them except blank control group were inoculated with 50 ul collagen plus CFA mixture subcutaneously at back flank near tail. The weights of all 90 mice were monitored 3 times a week throughout the experiment.
(§1) Eight of nine groups (10 mice in each group) of male DBA/1J mice (age 9-10 weeks. H-2q haplotype) were subject to CIA model induction and then to different treatment schemes. The group of mice without CIA model induction was used as a control (Blank). Specifically, Bovine type II collagen (Chondrex) was mixed with Freund's complete adjuvant (CFA) (Sigma) and injected s.c. to flank near tail of the mice twice (the second injection was made 21 days after the first injection) to create CIA model mice. The eight groups of CIA model mice were separated into four prophylactic groups and four therapeutic groups, with each group subjected to different treatments.
(§2) In the four prophylactic groups, daily treatments started from the date when the first CIA induction injection was made. The first of the four prophylactic groups of CIA model mice were treated with 30% PEG300 (containing 4% DMSO-all 30% PEG300 in the application contains 4% DMSO) solution via intraperitoneal injection as controls (Model). The second of the four prophylactic groups of CIA model mice were treated with nicotinohydrazide (Calbiochem) 10 mg/kg in 30% PEG300 solution via intraperitoneal injection (573108 10 mg/kg). The third of the four prophylactic groups of CIA model mice were treated with nicotinohydrazide (Calbiochem) 5 mg/kg in 30% PEG300 solution via intraperitoneal injection (573108 5 mg/kg). The last of the four prophylactic groups of CIA model mice were treated with Tofacitinib (Selleckchem) 5 mg/kg in 30% PEG300 solution via intraperitoneal injection (Tofacitinib 5 mg/kg).
(§3) In the four therapeutic groups, daily treatments started from the date when the second CIA induction injection was made. The first of the four therapeutic groups of CIA model mice were treated with 30% PEG300 solution via intraperitoneal injection as controls (Model). The second of the four therapeutic groups of CIA model mice were treated with nicotinohydrazide (Calbiochem) 10 mg/kg in 30% PEG300 solution via intraperitoncal injection (573108 10 mg/kg). The third of the four therapeutic groups of CIA model mice were treated with nicotinohydrazide (Calbiochem) 5 mg/kg in 30% PEG300 solution via intraperitoneal injection (573108 5 mg/kg). The last of the four therapeutic groups of CIA model mice were treated with Tofacitinib (Selleckchem) 5 mg/kg in 30% PEG300 solution via intraperitoncal injection (Tofacitinib 5 mg/kg).
(§4) The inventors collected data of the weight, and clinical scores of the mice every 2-3 days and performed statistic analysis. The method used in the statistic analysis was Student's t test, unpaired, two-tailed analysis.

[2] = system: collagen-induced arthritis (CIA) model mice; test: collagen-induced arthritis (CIA) model mice, clinical scores; type: in vivo, DBA/1J mice; design: key to Pairwise analysis of the difference between groups (clinical scores), vs Model / Pairwise analysis of the difference between groups (clinical scores), S5i 5 mpk vs S5i 10 mpk: p values from pairwise comparisons; settings: for clinical scores compared to Model: 5 mg/kg i.p. daily; for Pairwise analysis of the difference between groups (clinical scores), vs Model: 5 mpk
From the text: FIGS. 8A and 8B show graphs depicting clinical score changes in four groups of CIA mouse models under different treatment schemes. In FIG. 8A, different chemicals (DMSO as control for Model group, blank group is left untreated) were daily administered intraperitoneally at the indicated doses from the first injection of the collagen agent. In FIG. 8B, different chemicals were daily administered intraperitoneally from the second injection of collagen agent at the indicated doses. Clinical scores were given double-blindly according to the scoring scheme every 2 days.
FIGS. 9A and 9B show graphs of clinical scores at day 44 for each group, the overall difference analyzed by ANOVA is significant p<0.0001, while the p value between Model and each individual group is labeled above the bar * p<0.05, ** p<0.01.
as §1, §2, §3, §4
The clinical scores were derived according to the scheme in Table 2.

What does the source list for `C[C@@H]1CCN(C(=O)CC#N)C[C@@H]1N(C)c1ncnc2[nH]ccc12` [Tofacitinib]?
trend of weight changes, p vs Model ([1]; prophylactic groups): 0.0130; trend of weight changes, p vs Model ([1]; therapeutic groups): 0.0005; clinical scores compared to Model ([2]; prophylactic groups): reduced clinical scores; Pairwise analysis of the difference between groups (clinical scores), vs Model ([2]; prophylactic groups, Day 28): 0.0949; Pairwise analysis of the difference between groups (clinical scores), vs Model ([2]; prophylactic groups, Day 30): 0.0496; Pairwise analysis of the difference between groups (clinical scores), vs Model ([2]; prophylactic groups, Day 32): 0.0610; Pairwise analysis of the difference between groups (clinical scores), vs Model ([2]; prophylactic groups, Day 35): 0.0064; Pairwise analysis of the difference between groups (clinical scores), vs Model ([2]; prophylactic groups, Day 37): 0.0178; Pairwise analysis of the difference between groups (clinical scores), vs Model ([2]; prophylactic groups, Day 39): 0.0010; Pairwise analysis of the difference between groups (clinical scores), vs Model ([2]; prophylactic groups, Day 42): 0.0015; Pairwise analysis of the difference between groups (clinical scores), vs Model ([2]; prophylactic groups, Day 44): 0.0026; clinical scores compared to Model ([2]; therapeutic groups): reduced clinical scores; Pairwise analysis of the difference between groups (clinical scores), vs Model ([2]; therapeutic groups, Day 28): 0.0258; Pairwise analysis of the difference between groups (clinical scores), vs Model ([2]; therapeutic groups, Day 30): 0.0471; Pairwise analysis of the difference between groups (clinical scores), vs Model ([2]; therapeutic groups, Day 32): 0.0138; Pairwise analysis of the difference between groups (clinical scores), vs Model ([2]; therapeutic groups, Day 35): 0.0163; Pairwise analysis of the difference between groups (clinical scores), vs Model ([2]; therapeutic groups, Day 37): 0.0170; Pairwise analysis of the difference between groups (clinical scores), vs Model ([2]; therapeutic groups, Day 39): 0.0153; Pairwise analysis of the difference between groups (clinical scores), vs Model ([2]; therapeutic groups, Day 42): 0.0081; Pairwise analysis of the difference between groups (clinical scores), vs Model ([2]; therapeutic groups, Day 44): 0.0044
